Results: article PMC8704315, “Lichen-Derived Compounds and Extracts as Biologically Active Substances with Anticancer and Neuroprotective Properties” (Pharmaceuticals, 2021)
Where “and” joins values, the source holds several entries; their conditions need not be identical. Equal entries are not always repeated. Where two headings read alike, the source gives them in different places.

Experiments:
[1] = test system: Superoxide dismutase (SOD); assay: Effect on superoxide dismutase activity; type: biochemical; settings: 537.6 μg/mL reaction mixture, ± SEM, n = 3
Procedure: Sample (50 µL, 5 mg/mL of pure DMSO) was mixed with 10 μL SOD (0.24 U), 160 μL nitrobluetatrazolium solution (0.0025 M), 205 μLphosphate buffer (0.2 M, pH 7.5), 30 μL xanthine (150 mM in 1 M NaOH) and 0.01 mL xanthine oxidase (0.065 U, Sigma Aldrich X4875). The change in the absorbance at 550 nm was measured in tested samples vs. controls without the studied sample after […] of incubation and the effect on the enzyme was calculated using the equation [74]: (3) Inhibition [%]=100 – 100×(Abs. 30 min – Abs. 0 min)/(Abs. control. 30 min – Abs. control 0 min)

AChE = AChE (Homo sapiens, UniProt P22303); type: biochemical; settings: sample 142.9 μg/mL in the reaction mixture; further: key: -: not active
AChE, sequence (P22303 32-614): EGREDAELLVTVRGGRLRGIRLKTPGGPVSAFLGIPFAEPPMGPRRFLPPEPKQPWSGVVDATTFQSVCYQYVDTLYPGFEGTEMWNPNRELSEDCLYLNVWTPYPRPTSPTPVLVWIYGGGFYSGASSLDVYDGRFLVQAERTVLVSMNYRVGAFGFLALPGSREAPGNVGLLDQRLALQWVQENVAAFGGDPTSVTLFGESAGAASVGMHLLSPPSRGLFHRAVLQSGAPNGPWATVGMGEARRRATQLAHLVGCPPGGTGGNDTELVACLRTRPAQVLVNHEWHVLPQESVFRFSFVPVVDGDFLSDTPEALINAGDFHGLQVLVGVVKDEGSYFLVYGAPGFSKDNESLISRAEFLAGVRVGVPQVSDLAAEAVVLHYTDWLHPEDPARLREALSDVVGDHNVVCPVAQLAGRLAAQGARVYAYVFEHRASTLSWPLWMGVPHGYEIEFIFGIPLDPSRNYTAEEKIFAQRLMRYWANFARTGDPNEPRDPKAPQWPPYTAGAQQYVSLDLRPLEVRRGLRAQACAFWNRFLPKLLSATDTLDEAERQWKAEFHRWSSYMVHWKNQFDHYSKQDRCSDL
Procedure: Ellman’s colorimetric method was used with modifications described previously. Tested sample (10 μL) at concentration 5 mg/mL was mixed with 20 μL of AChE (or BChE) solution (0.28 U/mL) and completed after 5 min with 35 μL of ATChI (or BTCh) (1.5 mmol/L), 175 μL of 0.3 mmol/L DTNB (containing 10 mmol/L NaCl and 2 mmol/L MgCl2) and 110 μL with Tris-HCl buffer (50 mmol/L, pH 8.0). Samples containing 10 μL of Tris-HCl buffer instead of the studied sample were run in the same way (“blank” samples). The increase in the absorbance due to the spontaneous hydrolysis of the substrate was monitored using “blank” samples containing ATCh (or BTCh) and DTNB completed to 350 μL with Tris-HCl buffer. All samples were incubated at 22 °C (30 min; incubation time was determined after optimization experiments, details not shown), and the absorbance was measured (405 nm, 96-well microplate reader, Tecan Sunrise, Grödig, Austria). The “false-positive” effect of studied compounds was measured according to Rhee et al. with minor modifications, as described previously: after mixing of the substrate with the enzyme and buffer, the “false-positive” sample was left for incubation. Then, a studied sample and DTNB were added, followed by an immediate measurement of the absorbance.
Reference cholinesterase inhibitors were used for the calculations of results (eserine, neostigmine, magniflorine, rivastigmine and donepezil). For this purpose, for each compound, 16 dilutions in pure DMSO were prepared (2.57–41.14 μg/mL). These solutions (10 μL) were tested as described above and calibration curves were produced.
Each sample was analyzed in at least eight repeats, and all solutions used in a set of analyses were prepared in the same buffer. For calculations, the background of the sample (10 μL mixed with 340 μL of Tris buffer) was measured at 405 nm and subtracted during calculations. Then, the absorbance of the test sample was subtracted from the absorbance of the “blank” sample.

T98G cell line = assay: MTT cell viability assay, 48 h, T98G; type: cell-based, Human; settings: for IC50: Homo sapiens, T98G, read-out: IC50 T98G
Procedure: Stock solutions in dimethylsulfoxide DMSO (Sigma-Aldrich, St. Louis, MO, USA), (10 mM for compounds and 10 mg/mL for extracts) were prepared and stored at −20 °C. For the experiments, the stock solutions were diluted ex tempore to the final selected concentration with complete cell culture medium.
Human glioblastoma A-172 and T98G cell lines were purchased from the American Type Culture Collection (ATCC, Manassas, VA, USA), and the European Collection of Authenticated Cell Cultures (ECACC, Salisbury, UK), respectively. The cells were grown at 37 °C in 95% humidified and 5% CO2 atmosphere. Media recommended by the provider were used to cultivate the cells: ATCC-formulated Dulbecco’s modified Eagle’s medium (DMEM) (Sigma Aldrich, St. Louis, MO, USA), and ATCC-formulated Eagle’s Minimum Essential Medium (EMEM) (Sigma-Aldrich, St. Louis, MO, USA) were used for A-172 and T98G cells, respectively. Moreover, the media were supplemented with 10% fetal bovine serum (FBS) (Biowest, France) and 1% antibiotics (penicillin and streptomycin) solution (Sigma-Aldrich, St. Louis, MO, USA). The medium for the T98G cell line was additionally supplemented with 2 mM glutamine, 1% non-essential amino acids, and 1% sodium pyruvate (all obtained from Sigma Aldrich, St. Louis, MO, USA). For the experiments, the amount of FBS was reduced to 5%. All experiments were carried out 24 h after the cells were seeded on 96-well plates.
The effect of the tested compounds and extracts on GBM cell viability was assessed by measuring the ability of cells to metabolize 3-(4,5-dimethylthiazol-2-yl)-2,5-diphenyl-tetrazolium bromide (MTT), as previously described. In brief, 1 × 10^4 cells per well were seeded on 96-well plates. After 24 h incubation, they were treated with varying concentrations of lichen-derived compounds (1, 5, 10, 25, 50 and 100 µM) and extracts (1, 5, 10, 25, 50 and 100 µg/mL). Cells treated with medium containing the respective concentrations of DMSO (Sigma-Aldrich, St. Louis, MO, USA) were used as a control. After 48 h incubation the cells were washed with phosphate-buffered saline (PBS) buffer and incubated for 4 h in the presence of PBS containing 0.5 mg/mL MTT salt (Merck, Darmstadt, Germany). Next, the formazan crystals were dissolved in acidic isopropanol. In order to enhance dissolution of formazan crystals the plates were shaken on the orbital shaker for 30 min. Finally, the absorbance was measured at λ = 570 nm and λ = 690 nm on the microplate reader (Tecan Infinite M200). All the experiments were repeated three times with at least four measurements per assay.

Question: With `Cc1cc(O)c(C=O)c2c1C(=O)Oc1c(CO)c(O)c3c(c1O2)C(O)OC3=O` (stereo not shown) [Salazinic acid, salazinic acid] as the compound, how does the “SOD Inhibition (%)” value [1] read?
Answer: The value was 19.4 ± 0.3%.

Question: What about the “SOD Inhibition (%)” value ([1]; listed as salazinic acid) of the same compound?
Answer: The value was ~ 20%.

Question: What about the “Equivalent Reference Concentration, Donepezil, AChE” value (AChE) of the same compound?
Answer: Its value is “-”.

Question: What about the “Equivalent Reference Concentration, Eserine, AChE” value (AChE) of the same compound?
Answer: The value was “-”.

Question: And the “Equivalent Reference Concentration, Magniflorine, AChE” value (AChE)?
Answer: Its value is “-”.

Question: What about the “Equivalent Reference Concentration, Neostygmine, AChE” value (AChE) of the same compound?
Answer: Its value is “-”.

Question: What about the “Equivalent Reference Concentration, Rivastigmine, AChE” value (AChE) of the same compound?
Answer: Its value is “-”.

Question: What about the IC50 (T98G cell line; 48 h treatment, MTT, ± SEM) of the same compound?
Answer: The IC50 was > 38.8 µg/mL and > 100 µM.

Question: For `CC(=O)C1=C(O)C=C2Oc3c(C(C)=O)c(O)c(C)c(O)c3C2(C)C1=O` (single isomer, unassigned; (-)) [(−)-Usnic acid, (−)-usnic acid], which “SOD Inhibition (%)” value [1] is on record?
Answer: Its value is 19.6 ± 0.6%.

Question: And the “SOD Inhibition (%)” value ([1]; listed as (−)-usnic acid)?
Answer: Its value is ~ 20%.

Question: And the “Equivalent Reference Concentration, Donepezil, AChE” value (AChE)?
Answer: The value was “-”.

Question: And the “Equivalent Reference Concentration, Eserine, AChE” value (AChE)?
Answer: Its value is “-”.

Question: What about the “Equivalent Reference Concentration, Magniflorine, AChE” value (AChE) of the same compound?
Answer: Its value is “-”.

Question: What about the “Equivalent Reference Concentration, Neostygmine, AChE” value (AChE) of the same compound?
Answer: Its value is “-”.

Question: What about the “Equivalent Reference Concentration, Rivastigmine, AChE” value (AChE) of the same compound?
Answer: Its value is “-”.

Question: And the IC50 (T98G cell line; 48 h)?
Answer: The IC50 was 13 µg/mL and 37.8 µM.

Question: For `COc1cc(C)c(C(=O)Oc2cc(C)c(C(=O)O)c(O)c2)c(O)c1` [Evernic acid, evernic acid], which “SOD Inhibition (%)” value [1] is on record?
Answer: Its value is 21.2 ± 0.0%.

Question: And the “SOD Inhibition (%)” value ([1]; listed as evernic acid)?
Answer: The value was ~ 20%.

Question: What about the “Equivalent Reference Concentration, Donepezil, AChE” value (AChE) of the same compound?
Answer: The value was “-”.

Question: And the “Equivalent Reference Concentration, Eserine, AChE” value (AChE)?
Answer: The value was “-”.

Question: What about the “Equivalent Reference Concentration, Magniflorine, AChE” value (AChE) of the same compound?
Answer: The value was “-”.

Question: And the “Equivalent Reference Concentration, Neostygmine, AChE” value (AChE)?
Answer: Its value is “-”.

Question: And the “Equivalent Reference Concentration, Rivastigmine, AChE” value (AChE)?
Answer: Its value is “-”.

Question: What about the IC50 (T98G cell line; 48 h treatment, MTT, ± SEM) of the same compound?
Answer: The IC50 was > 33.2 µg/mL and > 100 µM.

Question: And the “reduction in cell viability T98G” value (T98G cell line; highest tested concentration (100 µM), 48 h MTT)?
Answer: Its value is ~ 20%.
